Patent US20250195530A1, “POLQ INHIBITORS” (ASTRAZENECA AB, priority 2022, published 2025)
Like-named read-outs stand apart in the source and are kept apart here.

Test system: DLD-1 BRCA2−/− cells
Test: Homologous recombination synthetic lethal inhibition of proliferation, DLD-1 BRCA2-/- (Cell Titre Glo 3D)
Type: cell-based
Settings: for IC50: Homo sapiens
In short: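 Luminescent Cell Titre Glo 3D readout, taken on day 12 for homologous-recombination-deficient DLD-1 BRCA2−/− and day 7 for the wild-type control, after compound refresh on day 6. Compounds spanned 10 μM to 0.51 nM in three-fold steps; IC50 defined as 50% reduction of average maximum signal.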

[1] = DLD-1, first proliferation column (c5), taken as DLD-1 BRCA2-/-, read-out: POLQ PD Prolif Lumin (converted)
[2] = DLD-1, DLD-1 BRCA2-/- proliferation, column head only partly shown, read-out: POLQ PD Prolif Lumin (converted)
[3] = DLD-1, first proliferation column (c5), DLD-1 BRCA2-/-, read-out: POLQ PD Prolif Lumin (converted)
[4] = DLD-1, DLD-1 BRCA2 −/− cells, mean, read-out: POLQ PD Prolif Lumin BRCA2 −/− mean pIC50 (converted)
[5] = DLD-1, proliferation, luminescence, taken as DLD-1 BRCA2-/-, read-out: POLQ PD Prolif Lumin (converted)
[6] = DLD-1, first proliferation column, DLD-1 BRCA2-/-, read-out: POLQ PD Prolif Lumin (converted)
[7] = DLD-1, DLD-1 BRCA2 −/−, mean, read-out: POLQ PD Prolif Lumin BRCA2 −/− mean pIC50 (converted)

For `Cc1ccnc(Cn2c(-c3ccc(C(=O)N(C)C4COC4)cc3Cl)nc3c(OC4(C)CC4)ncnc32)c1` [Example T320, 3-chloro-N-methyl-4-(6-(1-methylcyclopropoxy)-9-((4-methylpyridin-2-yl)methyl)-9H-purin-8-yl)-N-(oxetan-3-yl)benzamide], which IC50 [1] is on record?
The IC50 was 3160 nM.

For `CC(=O)NCCCOc1ccc(-c2nc3c(OC4(C)CC4)ncnc3n2Cc2cc(C)ccn2)c(Cl)c1` [Example T367, N-(3-(3-chloro-4-(6-(1-methylcyclopropoxy)-9-((4-methylpyridin-2-yl)methyl)-9H-purin-8-yl)phenoxy)propyl)acetamide], which IC50 [1] is on record?
The IC50 was 316 nM.

How did the IC50 [2] turn out when `CC(CCOc1ccc(-c2nc3c(OC4(C)CC4)ncnc3n2Cc2cccc(Cl)c2F)c(Cl)c1)C(=O)O` (racemic) [Example T267, 4-(3-chloro-4-(9-(3-chloro-2-fluorobenzyl)-6-(1-methylcyclopropoxy)-9H-purin-8-yl)phenoxy)-2-methylbutanoic acid] was run?
Its IC50 is 398 nM.

How did the IC50 [3] turn out when `C[C@H](COc1cccc(-c2nc3c(OC4(C)CC4)ncnc3n2Cc2cccc(Cl)c2)c1Cl)C(=O)O` [Example T159, (R)-3-(2-chloro-3-(9-(3-chlorobenzyl)-6-(1-methylcyclopropoxy)-9H-purin-8-yl)phenoxy)-2-methylpropanoic acid] was run?
The IC50 was 126 nM.

`Cc1ccnc(Cn2c(-c3ccc(C(=O)NC4CC(O)C4)cc3Cl)nc3c(OC4(C)CC4)ncnc32)c1` (stereo not shown) [Example T319, 3-chloro-N-(3-hydroxycyclobutyl)-4-(6-(1-methylcyclopropoxy)-9-((4-methylpyridin-2-yl)methyl)-9H-purin-8-yl)benzamide] was tested. Which IC50 [1] did it give?
The IC50 was 2510 nM.

For `CNC(=O)[C@H]1CCN(c2ccc(-c3nc4c(OC5(C)CC5)ncnc4n3Cc3cc(C)ccn3)c(Cl)c2)C1` [Example T497, (S)-1-(3-chloro-4-(6-(1-methylcyclopropoxy)-9-((4-methylpyridin-2-yl)methyl)-9H-purin-8-yl)phenyl)-N-methylpyrrolidine-3-carboxamide], which IC50 [3] is on record?
The IC50 was 501 nM.

Which IC50 [3] does the source give for `Cc1ccnc(Cn2c(-c3ccc(C4CNC(=O)C4)cc3Cl)nc3c(OC4(C)CC4)ncnc32)c1` (single isomer, unassigned) [Example T174, 4-(3-chloro-4-(6-(1-methylcyclopropoxy)-9-((4-methylpyridin-2-yl)methyl)-9H-purin-8-yl)phenyl)pyrrolidin-2-one] here?
The IC50 was 501 nM.

Which IC50 [1] does the source give for `CC1(Oc2ncnc3c2nc(-c2cccc(OCC(C)(C)C(=O)O)c2Cl)n3Cc2cccc(Cl)c2)CC1` [Example T298, 3-(2-chloro-3-(9-(3-chlorobenzyl)-6-(1-methylcyclopropoxy)-9H-purin-8-yl)phenoxy)-2,2-dimethylpropanoic acid] here?
Its IC50 is 631 nM.

With `CC1(Oc2ncnc3c2nc(-c2ccc(OCCCO)cc2Cl)n3Cc2cc(C(F)(F)F)ccn2)CC1` [Example T94, 3-(3-chloro-4-(6-(1-methylcyclopropoxy)-9-((4-(trifluoromethyl)pyridin-2-yl)methyl)-9H-purin-8-yl)phenoxy)propan-1-ol] as the compound, how does the IC50 [4] read?
The IC50 was 200 nM.

With `CC(COc1cccc(-c2nc3c(OC4(C)CC4)ncnc3n2Cc2cc(Cl)ccc2F)c1Cl)CC(=O)O` (single isomer, unassigned) [Example U34, 4-(2-chloro-3-(9-(5-chloro-2-fluorobenzyl)-6-(1-methylcyclopropoxy)-9H-purin-8-yl)phenoxy)-3-methylbutanoic acid] as the compound, how does the “POLQ PD Prolif Lumin BRCA2 −/− mean pIC50” value (DLD-1 BRCA2 −/−, mean) read?
Its value is 7.5.

How did the IC50 [5] turn out when `COc1cccc(Cn2c(-c3ccc(OCCC(C)C(=O)O)cc3Cl)nc3c(OC4(C)CC4)ncnc32)c1` (single isomer, unassigned) [Example T455, 4-(3-chloro-4-(9-(3-methoxybenzyl)-6-(1-methylcyclopropoxy)-9H-purin-8-yl)phenoxy)-2-methylbutanoic acid] was run?
The IC50 was 1580 nM.

Which IC50 [3] does the source give for `Cc1ccnc(Cn2c(-c3ccc(OCCCF)cc3Cl)nc3c(OC4(C)CC4)ncnc32)c1` [Example T108, 8-(2-chloro-4-(3-fluoropropoxy)phenyl)-6-(1-methylcyclopropoxy)-9-((4-methylpyridin-2-yl)methyl)-9H-purine] here?
Its IC50 is 126 nM.

How did the IC50 [6] turn out when `Cc1ccnc(Cn2c(-c3ccc(OCC(=O)N4CC[C@@H](CO)C4)cc3Cl)nc3c(OC4(C)CC4)ncnc32)c1` [Example T578, (R)-2-(3-chloro-4-(6-(1-methylcyclopropoxy)-9-((4-methylpyridin-2-yl)methyl)-9H-purin-8-yl)phenoxy)-1-(3-(hydroxymethyl)pyrrolidin-1-yl)ethan-1-one] was run?
The IC50 was 631 nM.

With `Cc1ccnc(Cn2c(-c3ccc(CCNC(=O)CO)cc3Cl)nc3c(OC4(C)CC4)ncnc32)c1` [Example T223, N-(3-chloro-4-(6-(1-methylcyclopropoxy)-9-((4-methylpyridin-2-yl)methyl)-9H-purin-8-yl)phenethyl)-2-hydroxyacetamide] as the compound, how does the IC50 [2] read?
Its IC50 is 501 nM.

`CC1(Oc2ncnc3c2nc(-c2cccc(OCCOCC(=O)O)c2Cl)n3Cc2cccc(Cl)c2)CC1` [Example T162, 2-(2-(2-chloro-3-(9-(3-chlorobenzyl)-6-(1-methylcyclopropoxy)-9H-purin-8-yl)phenoxy)ethoxy)acetic acid] was tested. Which IC50 [3] did it give?
The IC50 was 126 nM.

`CC1(Oc2ncnc3c2nc(-c2cccc(OCCC(=O)O)c2Cl)n3Cc2cc(Cl)ccc2F)CC1` [Example U32, 3-(2-chloro-3-(9-(5-chloro-2-fluorobenzyl)-6-(1-methylcyclopropoxy)-9H-purin-8-yl)phenoxy)propanoic acid] was tested. Which IC50 [7] did it give?
The IC50 was 39.8 nM.

With `C[C@H](Oc1cccc(-c2nc3c(OC4(C)CC4)ncnc3n2Cc2cccc(Cl)c2)c1Cl)C(=O)O` [Example T90, (S)-2-(2-chloro-3-(9-(3-chlorobenzyl)-6-(1-methylcyclopropoxy)-9H-purin-8-yl)phenoxy)propanoic acid] as the compound, how does the IC50 [4] read?
Its IC50 is 2000 nM.

Which IC50 [5] does the source give for `CC(=O)N1CC[C@@H](Oc2ccc(-c3nc4c(OC5(C)CC5)ncnc4n3Cc3cc(C)ccn3)c(Cl)c2)C1` [Example T472, (R)-1-(3-(3-chloro-4-(6-(1-methylcyclopropoxy)-9-((4-methylpyridin-2-yl)methyl)-9H-purin-8-yl)phenoxy)pyrrolidin-1-yl)ethan-1-one] here?
The IC50 was 200 nM.

Which “POLQ PD Prolif Lumin” value (DLD-1 BRCA2-/- proliferation, column head only partly shown) does the source give for `CC(CCOc1ccc(-c2nc3c(OC4(C)CC4)ncnc3n2Cc2cccc(Cl)c2F)c(Cl)c1)C(=O)O` (single isomer, unassigned) [Example T271, 4-(3-chloro-4-(9-(3-chloro-2-fluorobenzyl)-6-(1-methylcyclopropoxy)-9H-purin-8-yl)phenoxy)-2-methylbutanoic acid] here?
Its value is 6.4.

For `Cc1ccnc(Cn2c(-c3ccc(C(=O)N4CC(C)(O)C4)cc3Cl)nc3c(OC4(C)CC4)ncnc32)c1` [Example T314, (3-chloro-4-(6-(1-methylcyclopropoxy)-9-((4-methylpyridin-2-yl)methyl)-9H-purin-8-yl)phenyl)(3-hydroxy-3-methylazetidin-1-yl)methanone], which IC50 [1] is on record?
The IC50 was 1260 nM.

`CC(CCOc1ccc(-c2nc3c(OC4(C)CC4)ncnc3n2Cc2ccc(C#N)cc2)c(Cl)c1)C(=O)O` (racemic) [Example U7, 4-(3-chloro-4-(9-(4-cyanobenzyl)-6-(1-methylcyclopropoxy)-9H-purin-8-yl)phenoxy)-2-methylbutanoic acid] was tested. Which IC50 [7] did it give?
Its IC50 is 2510 nM.

`CC(C)(C)Oc1cccc2c1nc(-c1ccc(OCCN3CCNCC3)cc1Cl)n2Cc1cccc(Cl)c1` [Example T608, 4-(tert-butoxy)-2-(2-chloro-4-(2-(piperazin-1-yl)ethoxy)phenyl)-1-(3-chlorobenzyl)-1H-benzo[d]imidazole] was tested. Which IC50 [6] did it give?
Its IC50 is 501 nM.

For `CC1(Oc2ncnc3c2nc(-c2ccc(CC(N)=O)cc2Cl)n3CCc2cccc(Br)n2)CC1` [Example T46, 2-(4-(9-(2-(6-bromopyridin-2-yl)ethyl)-6-(1-methylcyclopropoxy)-9H-purin-8-yl)-3-chlorophenyl)acetamide], which IC50 [4] is on record?
Its IC50 is greater than 10000 nM.

For `CC1(Oc2ncnc3c2nc(-c2ccc(CCCC(=O)O)cc2Cl)n3Cc2cccc(Cl)c2)CC1` [Example T155, 4-(3-chloro-4-(9-(3-chlorobenzyl)-6-(1-methylcyclopropoxy)-9H-purin-8-yl)phenyl)butanoic acid], which IC50 [3] is on record?
Its IC50 is 631 nM.

Which IC50 [6] does the source give for `Cc1ccnc(Cn2c(-c3ccc(OCC(=O)N4CCC[C@H]4CO)cc3Cl)nc3c(OC4(C)CC4)ncnc32)c1` [Example T576, (S)-2-(3-chloro-4-(6-(1-methylcyclopropoxy)-9-((4-methylpyridin-2-yl)methyl)-9H-purin-8-yl)phenoxy)-1-(2-(hydroxymethyl)pyrrolidin-1-yl)ethan-1-one] here?
Its IC50 is 501 nM.

How did the IC50 [5] turn out when `CC(CCOc1ccc(-c2nc3c(OC4(C)CC4)ncnc3n2Cc2cccc(C(F)F)c2)c(Cl)c1)C(=O)O` (single isomer, unassigned) [Example T412, 4-(3-chloro-4-(9-(3-(difluoromethyl)benzyl)-6-(1-methylcyclopropoxy)-9H-purin-8-yl)phenoxy)-2-methylbutanoic acid] was run?
The IC50 was 251 nM.

`Cc1ccnc(Cn2c(-c3ccc(C(=O)N[C@H](C)CCO)cc3Cl)nc3c(OC4(C)CC4)ncnc32)c1` [Example T364, (R)-3-chloro-N-(4-hydroxybutan-2-yl)-4-(6-(1-methylcyclopropoxy)-9-((4-methylpyridin-2-yl)methyl)-9H-purin-8-yl)benzamide] was tested. Which IC50 [1] did it give?
Its IC50 is 794 nM.

`CC1(Oc2ncnc3c2nc(-c2ccc(CC(N)=O)cc2Cl)n3Cc2ccccc2)CC1` [Example T48, 2-(4-(9-benzyl-6-(1-methylcyclopropoxy)-9H-purin-8-yl)-3-chlorophenyl)acetamide] was tested. Which IC50 [4] did it give?
Its IC50 is 200 nM.
